Here are results for 5 compounds from patent US10227610B2, “Methods and compositions for enhancing nuclease-mediated gene disruption” (SANGAMO THERAPEUTICS, INC., priority 2013, dated 2019).

Assay [1] concerns K562 cells. Description: ZFN-mediated targeted integration of ssOligo at CCR5 locus, RFLP assay and 96 colony sequencing. It counts as cell-based, human. Particulars: Day 3; for effect on targeted integration: KU55933 10 μM, Olaparib 5 μM added to DNA-PKcs inhibitor. How it is done: K562 cells were transfected by Amaxa® electroporation system with plasmid DNA encoding a CCR5-specific ZFN pair (see, U.S. Pat. No. 7,951,925) and a single-stranded oligonucleotide (ssOligo) (120 bp) which has homology to the target region and harbors a unique restriction site (Avr II). The cells then were treated twice with small molecule inhibitors described in Example 1 (outlined in FIG. 2A). In particular, the inhibitors Olaparib (PARP1/2-inhibitor) and NU7441 (DNA-PKcs-inhibitor) were added 5 hours after the ZFN-encoding DNA delivery at concentration of 5 μM and 3 μM, respectively. As a control, the ATM inhibitor KU55933 was added at a concentration of 10 μM. After 15 hours, fresh inhibitors were added to the medium to counteract the decay of the inhibitors in the cell culture medium. After a further 54 hours, the cells were harvested and genomic DNA was prepared for Day 3 analysis by Surveyor™/CelI assay, RFLP analysis and DNA sequencing.
The RFLP assay was carried out by digestion of the PCR amplified target locus with a restriction enzyme cutting in the integrated ssOligo. For DNA sequencing, the genomic target region of the ZFN was amplified by PCR, topo-cloned and 96 individual clones were sequenced.

Assay [2] deals with Hepa 1-6 cells. Description: Mutagenic repair (% indels) after albumin-specific ZFN, Surveyor/CelI assay and clone sequencing. It is filed as cell-based. How it is done: In particular, the inhibitors Olaparib (PARP1-inhibitor) and NU7441 (DNA-PKcs inhibitor) were added 3 hours after mRNA delivery at concentration of 5 μM and 3-5 μM respectively. As a control, the ATM inhibitor KU55933 was added at a concentration of 10 μM (ATM has no direct role in DSB repair but is related to DNA-PKcs). After 15 hours, fresh inhibitors were added to the medium to counteract the decay of the inhibitors in the cell culture medium.
After a further 54 hours, cells were harvested and genomic DNA was prepared for Day 3 analysis by Surveyor™/CelI assay and DNA sequencing. For DNA sequencing the genomic target region of the ZFN was amplified by PCR, topo-cloned and 96 individual clones were sequenced. The sequences were analyzed and the results used to divide the clones into groups by the genome type (e.g. wild type genomes, those with insertions and/or deletions, and those with other modifications). At Day 3 harvest about a third of the cells were re-seeded in fresh medium without inhibitors and were grown until day 10 when they were harvested and analyzed by Surveyor™/CelI assay.

Assay [3] has as its system K562 cells. Description: Targeted integration of AAVS1 oligo with double-stranded cleaving or nickase ZFNs, HindIII digestion. It counts as cell-based, human. The conditions noted are these: NU1025 for 24 hr or 48 hr. How it is done: In another experiment, K562 cells were treated with the PARP1 inhibitor NU1025. Briefly, two million K562 cells were nucleofected with 5 μg of double-stranded cleaving or nickase ZFNs specific for AAVS1 (U.S. Pat. No. 8,110,379) with or without 3 μl of an antisense AAVS1 oligo (100 μM). The cells were immediately treated with PARP inhibitor NU1025 after nucleofection for 24 hr or 48 hr. All cells were harvested 48 hr after nucleofection. 1.0 μg of PCR DNA was subjected to HindIII digestion.

The subject of assay [4] is CHO K1 cells. The assay can be described thus: Targeted integration of double stranded donor at glutamine synthetase (GS) locus, RFLP. It counts as cell-based. The protocol: The use of DNA PKcs inhibitors during insertion of a double stranded donor in CHO K1 cells was also tested. For this experiment, a donor that was delivered either via a plasmid (FIG. 4E) or via a PCR fragment (FIG. 4F). Briefly, CHO K1 cells were transfected with Nucleofector Kit V on an Amaxa® instrument. The transfection components and their dosages were as follows: one million CHO K1 cells suspended in 100 μl of Nucleofection™ Solution V; 4 μg each of two in vitro transcribed ZFN mRNAs engineered for inducing DSBs at the glutamine synthetase locus (GS) in CHO cells (see, e.g., U.S. Pat. No. 8,153,399); 2 μg (FIG. 4E) or 4 μg (FIG. 4F) of in vitro transcribed CHO or human Rad52 mRNA; 10 μg of plasmid donor (3.8 kb) or PCR fragment donor (1.1 kb). The plasmid donor and the PCR fragment donor both carried the same target integration sequence, containing two 500 bp homologous arms, two loxP sites, and a multiple cloning site.
DNA-PKcs inhibitor NU7026 or NU7441 was added into 2 ml per well of pre-warmed culture medium in a 6-well plate at concentration of 20 μM or 16 respectively, before transfected cells were added into the medium. Cells were grown in the inhibitor-containing medium for 24 hours at 37° C. and 5% CO2. The medium was then replaced with fresh medium without inhibitor. DMSO was used as inhibitor blank control. […]

The subject of assay [5] is CD34+ cells. The assay can be described thus: Targeted integration of ssOligo at CCR5 in primary cells, clone sequencing. It counts as cell-based. The conditions noted are these: NU7441 3 μM, Day 3; at the expense of 5-nucleotide duplications and deletions. How it is done: Specifically, donor derived CD34+ cells were transfected 3 days after culture in medium suppressing differentiation. This was carried out by the BTX electroporation system with mRNA DNA encoding a CCR5-specific ZFN pair and a ssOligonucleotide (120 bp) which has homology to the target region and harbors a unique restriction site (Avr II). The cells were then treated twice with small molecule inhibitors as described in Example 1. In particular, the inhibitor NU7441 (DNA-PKcs-inhibitor) was added 3 hours after mRNA delivery at a concentration of 3 μM. After 15 hours, fresh inhibitors were added to the medium to counteract the decay of the inhibitors in the cell culture medium. After a further 54 hours, cells were harvested and genomic DNA was prepared for Day 3 analysis by DNA sequencing. For DNA sequencing the genomic target region of the ZFN was amplified by PCR, topo-cloned, and 96 individual clones were sequenced.

The test system of assay [6] is HEK293 cells. Description: Targeted integration of ssDNA oligo donor at AAVS1 locus, RFLP. It counts as cell-based, human. The conditions noted are these: NU7441 10 μM. The protocol: We next used the inhibitors to measure their effect on targeted integration of single-stranded donors. Briefly, HEK293 and MCF7 cells were transfected with Nucleofector Kit V and MCF10A cells were transfected with Nuleofector™ Kit L on an Amaxa® instrument. The transfection components and their dosages were as follows: 0.8 million cells suspended in 100 μL of nucleofection solution; 3 μg each of two in vitro transcribed ZFN mRNAs engineered for inducing DSBs at the AAVS1 locus in human cells (see, e.g., U.S. Pat. No. 8,110,379); 0.3 nmol of a 100-nt ssDNAoligo donor. The oligo donor carried a HindIII restriction site at the position of 20 bp upstream of the ZFN cleavage site, and the HindIII site was used as marker for target integration analysis by RFLP. DNA-PKcs inhibitor NU7441 was added into 2 ml per well of pre-warmed culture medium in a 6-well plate at concentration of 10 μM for HEK293 and MCF7, and 15 or 20 μM for MCF10A before transfected cells were added into the medium. Cells were grown in the inhibitor-containing medium for 24 hours at 37° C. and 5% CO2. The medium was then replaced with fresh medium without inhibitor. DMSO was used as inhibitor blank control. For genomic DNA preparation, HEK293 and MCF10A cells were harvested 3 days after transfection, and MCF7 cells were harvested 5 days after nucleofection. […]

Assay [7] relates to K562 cells. Description: TALEN-mediated targeted integration at human CCR5 locus, deep sequencing. It counts as cell-based. How it is done:
See, e.g., U.S. Pat. No. 8,586,526. K562 cells were transfected by AMAXA with plasmid DNA encoding either hCCR5 TALENs or ZFNs and then the cells were treated with DMSO or DNA-PKcs inhibitor NU7441. Cells were harvested at Day 3 and Day 10 and genomic PCR was analyzed after PCR by deep sequencing.

The test system of assay [8] is K562 cells. The assay can be described thus: Nickase ZFN with ssOligo at CCR5, Surveyor/CelI assay and sequencing. It is filed as cell-based, human. From the text: K562 cells were transfected by Amaxa electroporation system with plasmid DNA encoding a CCR5-specific ZFN pair (see, U.S. Pat. No. 7,951,925) and a single-stranded oligonucleotide (ssOligo) (120 bp) which has homology to the target region and harbors a unique restriction site (Avr II). […] Due to the less deleterious nature of this kind of DNA damage, recombination events mediated by ssDNA breaks may be preferable over DSBs. However, the frequency of gene modification mediated via ssDNA breaks is very low. DNA-PKcs and PARP inhibitors were used in an attempt to increase the frequency of gene modification mediated via ssDNA breaks (“nicks”).
Briefly, the transfected K562 cells were treated twice with either PARP1/2 inhibitor (Olaparib-5 μM) or DNA-PKcs inhibitor (NU7441-3 μM) 5 hours and 15 hours after transfection to counteract the decay of the inhibitors in the cell culture medium. After a further 54 hours, cells were harvested and genomic DNA was prepared for Day 3 analysis by Surveyor™/CelI assay, RFLP analysis and DNA sequencing as described in Example 1. The RFLP assay was carried out by digestion of the PCR amplified target locus with a restriction enzyme cutting in the integrated ssOligo. For DNA sequencing, the genomic target region of the ZFN was amplified by PCR, topo-cloned, and 96 individual clones were sequenced.

Regarding `O=c1cc(-c2cccc3c2Sc2ccccc2S3)oc(N2CCOCC2)c1` [KU55933], the “effect on targeted integration” value in assay [1] is “no effect”. In assay [2] (KU55933 10 μM control), the “effect on mutagenic repair” value was “slight decrease”.

Consider `Cc1nc2c(O)cccc2c(=O)[nH]1` [NU1025], for which the “integration of AAVS1 oligo” value in assay [3] is “detectable integration”.

For `O=c1cc(N2CCOCC2)oc2c1ccc1ccccc12` [NU7026], the “plasmid donor-based target integration” value in assay [4] (NU7026 alone, 20 μM) was “no apparent increase”.

Turning to `O=c1cc(N2CCOCC2)oc2c(-c3cccc4c3sc3ccccc34)cccc12` [NU7441], the “increase of PCR fragment donor-based target integration” value in assay [4] (PCR fragment donor) is “about 5 fold”. In addition, in assay [1] (NU7441 3 μM, RFLP and 96 colony sequencing), the “increase of targeted integration” value was 2-3 fold. In addition, the targeted integration entry in assay [5] is given as “slight increase”. For the same compound, in assay [6], the “targeted integration of a single stranded donor” value was “increased”. The TALEN-mediated targeted integration result in assay [7] (Day 3, vs DMSO) is on record as “up to two fold”. Besides, in assay [7] (TALENs, after NU7441 treatment), the “share of all genome editing events that are targeted integrations” value is reported as “more than half” and the “unwanted mutagenic events (Indels)” value is on record as “drastically reduced”. Also, in assay [2] (Day 10, after withdrawal of inhibitors), the “increase of mutagenic repair” value is listed as “about 2 fold”. Moreover, in assay [8] (Nickase ZFNs co-transfected with ssOligo, NU7441 3 μM, Olaparib 5 μM), the “CelI signal (indels)” value worked out at 7%. Also, in assay [8] (sequencing of 96 clones), the “clones with non-WT sequence (perfect targeted integration of the ssOligo)” value is on record as “one of 96”.

On to `O=C(c1cc(Cc2n[nH]c(=O)c3ccccc23)ccc1F)N1CCN(C(=O)C2CC2)CC1` [Olaparib], for which the “effect on targeted integration” value in assay [1] is given as “did not further increase”.
